Measured values taken from patent US12077503B2, “Substituted cyclic amides and their use as herbicides” (FMC CORPORATION, priority 2015, dated 2024).
Where two headings read alike, the source gives them in different places.

Legend:
[1] = tested on: ragweed (common ragweed, Ambrosia elatior); assay: Test A postemergence; assay type: in vivo; conditions: Ambrosia artemisiifolia, post-emergence, 240 h; for pest or weed control at 125 g/ha: 125 g ai/ha; for pest or weed control at 500 g/ha: 500 g ai/ha, 0 to 100 scale, 0 is no effect, 100 is complete control
Outline: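 Visual injury scores from 0, no effect, to 100, complete control, were assigned versus untreated controls roughly 10 d after treatment in the greenhouse. Test chemicals, formulated with surfactant in a non-phytotoxic solvent, were applied to planted seeds as a preemergence soil spray or postemergence to one- to two-leaf plants 2 to 10 cm tall, in loam–sand soil.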

[2] = tested on: barnyardgrass (Echinochloa crus-galli); assay: Test B flooded paddy test; assay type: in vivo; conditions: Echinochloa crus-galli, Flood, 250 g ai/ha, read-out: Barnyardgrass plant response rating
Outline: (§1)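 Visual ratings (0 none to 100 complete control) are relative to untreated plants, taken 13–15 d after treatment in a greenhouse. Test material went straight into floodwater standing 3 cm above the soil, kept constant, on plants at the 2-leaf stage.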

[3] = tested on: ducksalad (Heteranthera limosa); assay: Test B flooded paddy test; assay type: in vivo; conditions: Heteranthera limosa, Flood, 250 g ai/ha, read-out: Ducksalad plant response rating
Outline: as §1

rice (Oryra sativa) = assay: Test B flooded paddy test; assay type: in vivo; conditions: Oryza sativa, Flood, 250 g ai/ha, read-out: Rice plant response rating
Outline: as §1

[4] = tested on: sedge, umbrella (small-flower umbrella sedge, Cyperus difformis); assay: Test B flooded paddy test; assay type: in vivo; conditions: Cyperus difformis, Flood, 250 g ai/ha, read-out: Sedge, Umbrella plant response rating
Outline: as §1

[5] = scale of 0 to 100 where 0 is no effect and 100 is complete control
[6] = Postemergence, visual injury after approximately 10 d, 0 to 100 scale where 0 is no effect and 100 is complete control, read-out: Plant response rating, Ragweed
[7] = postemergence, visual injury on 0 to 100 scale (0 no effect, 100 complete control), approx. 10 d, read-out: Ragweed plant response rating
[8] = postemergence, read-out: Ragweed plant response rating
[9] = 0 to 100 scale where 0 is no effect and 100 is complete control
[10] = postemergence, visual injury vs untreated controls after approx. 10 d, 0 = no effect, 100 = complete control, read-out: Ragweed plant response rating (0 to 100 scale)

Row | melting point [°C] | Structure (SMILES) | pest or weed control at 125 g/ha ([1]; postemergence, visual injury rating after approximately 10 d, read-out: Ragweed plant response rating (0 to 100 scale, 0 no effect, 100 complete control)) [%] | pest or weed control at 250 g/ha [2, 5] [%] | pest or weed control at 250 g/ha [3, 5] [%] | pest or weed control at 250 g/ha (rice (Oryra sativa); [5]) [%] | pest or weed control at 250 g/ha [4, 5] [%] | pest or weed control at 125 g/ha [1, 6] [%] | pest or weed control at 125 g/ha [1, 7] [%] | pest or weed control at 500 g/ha [1, 8] [%] | pest or weed control at 250 g/ha [2, 9] [%] | pest or weed control at 250 g/ha [3, 9] [%] | pest or weed control at 250 g/ha (rice (Oryra sativa); [9]) [%] | pest or weed control at 250 g/ha [4, 9] [%] | pest or weed control at 125 g/ha [1, 10] [%]
1 | 132 to 135 | CN1CC(c2cccc(I)c2)C(C(=O)Nc2ccccc2F)C1=O (stereo not shown) [Compound 846] | 0 | 60 | 60 | 0 | 0 | – | – | – | – | – | – | – | –
2 | 181 to 184 | CN1C[C@H](c2ccc(C(F)(F)F)cc2)[C@@H](C(=O)Nc2ccccc2[S+](C)[O-])C1=O (stereo partly shown) [Compound 915] | – | 40 | 100 | 20 | 0 | 30 | – | – | – | – | – | – | –
3 | 123 to 126 | CN1C[C@H](c2ccc(C(F)(F)F)cc2)[C@@H](C(=O)Nc2ccc(F)cc2Br)C1=O [Compound 934] | – | 0 | 60 | 0 | 0 | 0 | – | – | – | – | – | – | –
4 | 119 to 122 | Cc1cc(F)ccc1NC(=O)[C@H]1C(=O)N(C)C[C@@H]1c1ccc(C(F)(F)F)cc1 [Compound 936] | – | 0 | 85 | 0 | 0 | 0 | – | – | – | – | – | – | –
5 | 178 to 181 | Cc1cccc(NC(=O)[C@H]2C(=O)N(C)C[C@@H]2c2ccc(C(F)(F)F)cc2)c1F [Compound 939] | – | 0 | 40 | 0 | 0 | 0 | – | – | – | – | – | – | –
6 | 166 to 169 | Cc1cccc(NC(=O)[C@H]2C(=O)N(C)C[C@@H]2c2ccc(C(F)(F)F)cc2)c1C [Compound 941] | – | 0 | 35 | 0 | 0 | 0 | – | – | – | – | – | – | –
7 | 113 to 116 | CN1C[C@H](c2ccc(C(F)(F)F)cc2)[C@@H](C(=O)Nc2ccc(F)cc2C(F)(F)F)C1=O [Compound 942] | – | 0 | 40 | 0 | 0 | 0 | – | – | – | – | – | – | –
8 | 128 to 132 | CCc1cccc([C@H]2CCNC(=O)[C@@H]2C(=O)Nc2cccc(F)c2F)c1 [Compound 1058] | – | – | – | – | – | – | 80 | 90 | 35 | 0 | 25 | 0 | –
9 | 97 to 101 | CN1CC(c2cccc(/C=C/Cl)c2)C(C(=O)Nc2ccccc2F)C1=O (stereo not shown) [Compound 1129] | – | – | – | – | – | – | 0 | 0 | 20 | 70 | 0 | 0 | –
10 | 216 to 220 | CN1CC(c2cccc(O)c2)C(C(=O)Nc2cccc(F)c2F)C1=O (stereo not shown) [Compound 1130] | – | – | – | – | – | – | 0 | 0 | 0 | 0 | 0 | 0 | –
11 | 119 to 123 | O=C1NC[C@H](c2ccc(F)c(OC(F)(F)C(F)F)c2)[C@H]1C(=O)Nc1ccccc1F [Compound 1133] | – | – | – | – | – | – | 60 | 70 | 50 | 85 | 0 | 0 | –
12 | 117 to 121 | CCc1cc([C@H]2CN(C)C(=O)[C@@H]2C(=O)Nc2ccccc2F)cs1 [Compound 1156] | – | – | – | – | – | – | – | 0 | 40 | 100 | 20 | 0 | 0
13 | 141 to 143 | O=C1NCC[C@H](c2cccc(Cl)c2)[C@H]1C(=O)Nc1ccccc1F [Compound 1159] | – | – | – | – | – | – | – | 0 | 0 | 70 | 0 | 0 | 0
14 | 139.5 to 153 | O=C1NC[C@H](c2nccs2)[C@H]1C(=O)Nc1cccc(F)c1F [Compound 1182] | – | – | – | – | – | – | – | 0 | 0 | 0 | 0 | 0 | 0
